Test results from patent publication US10792289B2 (Horizon Orphan LLC, priority 2009, dated 2020).

Tested on: stable CF patients
Assay: Phase 2 study: pulmonary function (FEV1, FVC, FEF 25-75)
Type: in vivo, human
Set-up: FEF 25-75, Median / FEV1, Day 14, Mean / FEF 25-75, Mean: unit not given here; FEV1, Day 1, Mean / FEV1, Day 1, Median / FEV1, Day 14, Median / FEV1, Day 28, Mean / FEV1, Day 28, Median: unit: L
Details: for Increase in FEF 25-75 / Increase in FEV1: median Day 1 to Day 28; for FEV1, Day 1, Mean / FEV1, Day 1, Median / FEV1, Day 14, Mean / FEV1, Day 14, Median / FEV1, Day 28, Mean / FEV1, Day 28, Median / FEV1, Percent Change from Baseline to Day 14, Mean / FEV1, Percent Change from Baseline to Day 14, Median / FEV1, Percent Change from Baseline to Day 28, Mean / FEV1, Percent Change from Baseline to Day 28, Median / % predicted FEV1, Mean / % predicted FEV1, Median: MITT population
Protocol: The following dosage regimens (as nebulizer loaded doses) were evaluated: 120 mg QD (daily); 240 mg QD (daily); and 240 mg BID (twice daily).
Efficacy endpoints including clinical endpoints, pulmonary function tests, and additional microbiological parameters were assessed as change from Day 1 to subsequent visits where the endpoint data was collected. Time to need for intravenous/oral/inhaled anti-pseudomonal antimicrobials were assessed from Day 1 until final visit using survival analysis. The primary population for efficacy analysis was the EE population, but efficacy endpoints were also analyzed using the MITT population.
Changes in FEV1 (forced expiratory volume in 1 second), FVC (forced vital capacity) and FEF 25-75 (forced expiratory flow 25-75%) from Day 1 to all subsequent visits were determined for patients. Tables 26 and 27 summarize the results for FEV1 measurements in EE and MITT populations, respectively. FIGS. 7 and 8 show graphs of percent change in FEV1 (L) and percent change in FEV1(L) vs. placebo, respectively, at Day 28 for the EET population treated with placebo, 120 mg QD, 240 mg QD, or 240 mg BID. […] Tables 28 and 29 summarize the results for predicted FEVI measurements in EE and MITT populations, respectively. Tables 30 and 31 summarize results for FEF 25-75 measurements in EE and MITT populations, respectively.

[1] = EE, 240 mg BID, Day 1 (baseline)
[2] = Day 1 (baseline), combined 240 mg QD and BID
[3] = Day 14, combined 240 mg QD and BID
[4] = Day 28, combined 240 mg QD and BID
[5] = MITT, 240 mg BID, Day 1 (baseline)

C[C@H]1COc2c(N3CCN(C)CC3)c(F)cc3c(=O)c(C(=O)O)cn1c23 [Levofloxacin, levofloxacin]
FEF 25-75, Median (EE population, Day 28, combined 240 mg QD and BID): 0.97 | FEF 25-75, Median (EE, 120 mg QD, Day 1): 0.98 | FEV1, median (EE, 120 mg QD, Day 1): 1.87 L | FEF 25-75, Median (EE, 120 mg QD, Day 28): 1.03 | FEV1, median (EE, 120 mg QD, Day 28): 1.91 L | Increase in FEF 25-75 (EE, 120 mg QD): approximately 5% | Increase in FEV1 (EE, 120 mg QD): approximately 2% | FEF 25-75, Median [1]: 0.68 | FEV1, median [1]: 1.70 L | FEF 25-75, Median (EE, 240 mg BID, Day 28): 0.78 | FEV1, median (EE, 240 mg BID, Day 28): 1.79 L | Increase in FEF 25-75 (EE, 240 mg BID): approximately 15% | Increase in FEV1 (EE, 240 mg BID): approximately 5% | FEF 25-75, Median (EE, 240 mg QD, Day 1): 1.10 | FEV1, median (EE, 240 mg QD, Day 1): 2.02 L | FEF 25-75, Median (EE, 240 mg QD, Day 28): 1.15 | FEV1, median (EE, 240 mg QD, Day 28): 2.15 L | Increase in FEF 25-75 (EE, 240 mg QD): approximately 4% | Increase in FEV1 (EE, 240 mg QD): approximately 6% | Largest difference for FEF 25-75, placebo vs levofloxacin (EE, Day 14): 0.25 L | Largest difference for FEV1, placebo vs levofloxacin (EE, Day 14): 0.16 L | Largest difference for FEF 25-75, placebo vs levofloxacin (EE, Day 28): 0.21 L | Largest difference for FEV1, placebo vs levofloxacin (EE, Day 28): 0.24 L | FEV1, Day 1, Mean (120 mg QD): 1.95 | FEV1, Day 1, Median (120 mg QD): 1.83 | FEV1, Day 14, Mean (120 mg QD): 1.97 | FEV1, Day 14, Median (120 mg QD): 1.79 | FEV1, Day 28, Mean (120 mg QD): 1.99 | FEV1, Day 28, Median (120 mg QD): 1.83 | FEV1, Percent Change from Baseline to Day 14, Mean (120 mg QD): 1.87% | FEV1, Percent Change from Baseline to Day 14, Median (120 mg QD): 0.56% | FEV1, Percent Change from Baseline to Day 28, Mean (120 mg QD): 1.92% | FEV1, Percent Change from Baseline to Day 28, Median (120 mg QD): 1.60% | FEV1, Day 1, Mean (240 mg BID): 1.88 | FEV1, Day 1, Median (240 mg BID): 1.70 | FEV1, Day 14, Mean (240 mg BID): 2.04 | FEV1, Day 14, Median (240 mg BID): 1.90 | FEV1, Day 28, Mean (240 mg BID): 1.93 | FEV1, Day 28, Median (240 mg BID): 1.82 | FEV1, Percent Change from Baseline to Day 14, Mean (240 mg BID): 9.34% | FEV1, Percent Change from Baseline to Day 14, Median (240 mg BID): 7.51% | FEV1, Percent Change from Baseline to Day 28, Mean (240 mg BID): 5.93% | FEV1, Percent Change from Baseline to Day 28, Median (240 mg BID): 3.55% | FEV1, Day 1, Mean (240 mg QD): 2.05 | FEV1, Day 1, Median (240 mg QD): 1.90 | FEV1, Day 14, Mean (240 mg QD): 2.12 | FEV1, Day 14, Median (240 mg QD): 2.04 | FEV1, Day 28, Mean (240 mg QD): 2.09 | FEV1, Day 28, Median (240 mg QD): 2.10 | FEV1, Percent Change from Baseline to Day 14, Mean (240 mg QD): 3.81% | FEV1, Percent Change from Baseline to Day 14, Median (240 mg QD): 1.92% | FEV1, Percent Change from Baseline to Day 28, Mean (240 mg QD): 2.35% | FEV1, Percent Change from Baseline to Day 28, Median (240 mg QD): 1.28% | FEV1, Day 1, Mean (Combined 240 mg QD and BID): 1.96 | FEV1, Day 1, Median (Combined 240 mg QD and BID): 1.80 | FEV1, Day 14, Mean (Combined 240 mg QD and BID): 2.08 | FEV1, Day 14, Median (Combined 240 mg QD and BID): 1.97 | FEV1, Day 28, Mean (Combined 240 mg QD and BID): 2.01 | FEV1, Day 28, Median (Combined 240 mg QD and BID): 1.95 | FEV1, Percent Change from Baseline to Day 14, Mean (Combined 240 mg QD and BID): 6.61% | FEV1, Percent Change from Baseline to Day 14, Median (Combined 240 mg QD and BID): 3.94% | FEV1, Percent Change from Baseline to Day 28, Mean (Combined 240 mg QD and BID): 4.14% | FEV1, Percent Change from Baseline to Day 28, Median (Combined 240 mg QD and BID): 2.50% | % predicted FEV1, Mean (Day 1 (baseline), 120 mg QD): 52.9% | % predicted FEV1, Median (Day 1 (baseline), 120 mg QD): 53.0% | % predicted FEV1, Mean (Day 1 (baseline), 240 mg BID): 48.8% | % predicted FEV1, Median (Day 1 (baseline), 240 mg BID): 46.0% | % predicted FEV1, Mean (Day 1 (baseline), 240 mg QD): 55.4% | % predicted FEV1, Median (Day 1 (baseline), 240 mg QD): 56.0% | % predicted FEV1, Mean [2]: 52.0% | % predicted FEV1, Median [2]: 51.0% | % predicted FEV1, Mean (Day 14, 120 mg QD): 53.9% | % predicted FEV1, Median (Day 14, 120 mg QD): 53.0% | % predicted FEV1, Mean (Day 14, 240 mg BID): 52.1% | % predicted FEV1, Median (Day 14, 240 mg BID): 49.56% | % predicted FEV1, Mean (Day 14, 240 mg QD): 57.1% | % predicted FEV1, Median (Day 14, 240 mg QD): 61.0% | % predicted FEV1, Mean [3]: 54.6% | % predicted FEV1, Median [3]: 52.0% | % predicted FEV1, Mean (Day 28, 120 mg QD): 54.1% | % predicted FEV1, Median (Day 28, 120 mg QD): 50.0% | % predicted FEV1, Mean (Day 28, 240 mg BID): 50.8% | % predicted FEV1, Median (Day 28, 240 mg BID): 49.0% | % predicted FEV1, Mean (Day 28, 240 mg QD): 56.7% | % predicted FEV1, Median (Day 28, 240 mg QD): 54.0% | % predicted FEV1, Mean [4]: 53.8% | % predicted FEV1, Median [4]: 53.5% | FEF 25-75, Median [5]: 0.68 | FEV1, median [5]: 1.70 L | FEF 25-75, Median (MITT, 240 mg BID, Day 28): 0.82 | FEV1, median (MITT, 240 mg BID, Day 28): 1.82 L | Increase in FEF 25-75 (MITT, 240 mg BID): approximately 20% | Increase in FEV1 (MITT, 240 mg BID): approximately 7% | FEF 25-75, Median (MITT, 240 mg QD, Day 1): 1.09 | FEV1, median (MITT, 240 mg QD, Day 1): 1.90 L | FEF 25-75, Median (MITT, 240 mg QD, Day 28): 1.12 | FEV1, median (MITT, 240 mg QD, Day 28): 2.10 L | Increase in FEF 25-75 (MITT, 240 mg QD): approximately 3% | Increase in FEV1 (MITT, 240 mg QD): approximately 10% | Largest difference for FEF 25-75, placebo vs levofloxacin (MITT, Day 14): 0.27 L | Largest difference for FEV1, placebo vs levofloxacin (MITT, Day 14): 0.12 L | Largest difference for FEF 25-75, placebo vs levofloxacin (MITT, Day 28): 0.21 L | Largest difference for FEV1, placebo vs levofloxacin (MITT, Day 28): 0.25 L
